The text below walks through data of patent US9856239B1, “Carboxylic acid compound, method for preparation thereof, and use thereof” (INVENTISBIO SHANGHAI LTD., priority 2014, dated 2018).

Bounds are passed on as bounds.

human URAT1, sequence (Q96S37 whole entry): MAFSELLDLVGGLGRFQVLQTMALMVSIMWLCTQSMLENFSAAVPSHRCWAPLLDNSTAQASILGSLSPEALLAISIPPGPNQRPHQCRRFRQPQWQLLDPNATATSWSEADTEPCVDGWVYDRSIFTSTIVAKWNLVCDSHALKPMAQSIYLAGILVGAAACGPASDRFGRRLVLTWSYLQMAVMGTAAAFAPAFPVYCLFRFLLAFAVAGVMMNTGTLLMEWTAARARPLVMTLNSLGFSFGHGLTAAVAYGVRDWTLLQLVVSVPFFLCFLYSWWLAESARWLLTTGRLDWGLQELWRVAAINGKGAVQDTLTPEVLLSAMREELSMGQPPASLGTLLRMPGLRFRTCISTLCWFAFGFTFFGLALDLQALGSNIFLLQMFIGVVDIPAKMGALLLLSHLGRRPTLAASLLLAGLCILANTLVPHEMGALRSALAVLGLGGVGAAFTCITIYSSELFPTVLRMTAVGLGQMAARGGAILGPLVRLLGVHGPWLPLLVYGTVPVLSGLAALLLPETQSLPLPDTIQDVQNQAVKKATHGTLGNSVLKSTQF

The experiment deals with human URAT1 (Homo sapiens (Human), UniProt Q96S37). Nature of the experiment: Inhibition of 14C-uric acid absorption in URAT1 cell model (HEK-293T cells transfected with human URAT1). Format: cell-based. The note with it: HEK-293T cells transfected with human URAT1, 14C-uric acid uptake, 5 min, 37 degrees; read-out: URAT1 IC50 Activity level. The method, then:
After 5 min, the buffer was removed from cell wells, added with 100 microliter of ice-cold and no chloride ions-containing HBSS buffer to gently rinse cells within wells so as to stop them from absorbing ^14C-uric acid, the rinsing was repeated 3 times in the same manner. 150 microliter of cell lysate (100 mM of NaOH) was added in each well. Cell plate was placed on a vibrating plate and vibrated for 10 min at a speed of 600 rpm such that the cells were completely lysed. The cell plate was put in a centrifuge and spun for 5 min at a speed of 1000 rpm, then 45 microliter of supernatant was sucked out from each well and transferred to 96-well plate (Isoplate-96 Microplate from PerkinElmer). In the new 96-well plate, 150 microliter of Ultima Gold XR scintillation solution was added in each well. The 96-well plate was vibrated for 10 min at a speed of 600 rpm on a vibrating plate. Finally, the 96-well plate was put in a MicroBeta Trilux Counter from PerkinElmer and was read, then IC50 values were calculated, and the results are shown in Table 1 below. Wherein
As a reminder, the IC50 is the concentration at which inhibition is half-maximal. Regarding `N#Cc1ccc(-c2cnccc2SCC2(C(=O)O)CC2)c2ccccc12` [Compound 1, 1-(((3-(4-cyanonaphthalen-1-yl)pyridin-4-yl)thio)methyl)cyclopropanecarboxylic acid], the IC50 is less than 100 nM. The value for `N#Cc1ccc(-c2cnccc2SCCC(=O)O)c2ccccc12` [Compound 2] was 100 to 1000 nM; that for `N#Cc1ccc(-c2cnccc2SCCCC(=O)O)c2ccccc12` [Compound 3] was less than 100 nM; that for `N#Cc1ccc(-c2cnccc2SCC2(CC(=O)O)CC2)c2ccccc12` [Compound 4, 2-(1-(((3-(4-cyanonaphthalen-1-yl)pyridin-4-yl)thio)methyl)cyclopropyl)acetic acid] was less than 100 nM. For `N#Cc1ccc(-c2cnccc2SC[C@H]2C[C@@H](C(=O)O)C2)c2ccccc12` [Compound 5] the value was 100 to 1000 nM; for `N#Cc1ccc(-c2cnccc2SC[C@H]2C[C@H](C(=O)O)C2)c2ccccc12` [Compound 6], greater than 1000 nM.

Regarding `N#Cc1ccc(-c2cnccc2S[C@H]2C[C@H](C(=O)O)C2)c2ccccc12` [Compound 7], the IC50 fell in the range of 100 to 1000 nM. The value for `CC(C)(Sc1ccncc1-n1cc(C#N)c2ccccc21)C(=O)O` [Compound 8, 2-((3-(3-cyano-1H-indol-1-yl)pyridin-4-yl)thio)-2-methylpropanoic acid] was greater than 1000 nM.

In the case of `CC(C)(Sc1ccncc1-n1nc(C2CC2)c2ccccc21)C(=O)O` [Compound 9], the IC50 was greater than 1000 nM. For `CC(C)(Sc1ccncc1-c1ncc(C#N)c2ccccc12)C(=O)O` [Compound 10, 2-((3-(4-cyanoisoquinolin-1-yl)pyridin-4-yl)thio)-2-methylpropanoic acid] the value was greater than 1000 nM; for `N#Cc1ccc(-c2ccccc2SCC2(CC(=O)O)CC2)cc1` [Compound 11, 2-(1-((2-(4-cyanophenyl)phenylthio)methyl)cyclopropyl)acetic acid], less than 100 nM; for `N#Cc1ccc(-c2cnccc2SCCC(F)(F)C(=O)O)c2ccccc12` [Compound 12], 100 to 1000 nM. For `N#Cc1ccc(-c2cnccc2Sc2ccccc2C(=O)O)c2ccccc12` [Compound 13] the value was 100 to 1000 nM. The value for `N#Cc1ccc(-c2cnccc2Sc2cccc(C(=O)O)c2)c2ccccc12` [Compound 14] was 100 to 1000 nM; that for `N#Cc1ccc(-c2cnccc2Sc2ccc(C(=O)O)cc2)c2ccccc12` [Compound 15] was 100 to 1000 nM.

For the compound `N#Cc1ccc(-c2cnccc2SCC2(C(=O)O)CCCC2)c2ccccc12` [Compound 16], the half-inhibitory concentration (IC50) is less than 100 nM. The value for `N#Cc1ccc(-c2cnccc2SCC2(C(=O)O)CCC2)c2ccccc12` [Compound 17, 1-(((3-(4-cyanonaphthalen-1-yl)pyridin-4-yl)thio)methyl)cyclobutanecarboxylic acid] was less than 100 nM; that for `CC(C)(CCC(=O)O)Sc1ccncc1-c1ccc(C#N)c2ccccc12` [Compound 18, 4-((3-(4-cyanonaphthalen-1-yl)pyridin-4-yl)thio)-4-methylpentanoic acid] was less than 100 nM; that for `Cc1cc(C#N)cnc1-c1cnccc1SC(C)(C)C(=O)O` [Compound 19] was greater than 1000 nM. For `N#Cc1ccc(-c2cnccc2SCC2(CC(=O)O)CC2)cc1` [Compound 20, 2-(1-(((3-(4-cyanophenyl)pyridin-4-yl)thio)methyl)cyclopropyl)acetic acid], the IC50 was less than 100 nM.

With `O=C(O)CC1(CSc2ccncc2-c2ccc(CO)cc2)CC1` [Compound 22, 2-(1-((3-(4-(hydroxymethyl)phenyl)pyridin-4-ylthio)methyl)cyclopropyl)acetic acid], the half-maximal inhibitory concentration (IC50) is 100 to 1000 nM.

With `N#Cc1ccc(-c2cnccc2NCC(=O)O)c2ccccc12` [Compound 24, 2-(3-(1-cyanonaphthalen-4-yl)pyridin-4-ylamino)acetic acid], the IC50 is greater than 1000 nM. For `CC(C)(Nc1ccncc1-c1ccc(C#N)c2ccccc12)C(=O)O` [Compound 25] the value was greater than 1000 nM. For `N#Cc1ccc(-c2cnccc2NCCC(=O)O)c2ccccc12` [Compound 26] the value was greater than 1000 nM.

Consider `N#Cc1ccc(-c2cnccc2NCCCC(=O)O)c2ccccc12` [Compound 27], for which the IC50 is greater than 1000 nM. The value for `N#Cc1ccc(-c2cnccc2NCC(=O)O)cc1` [Compound 28] was greater than 1000 nM; that for `N#Cc1ccc(-c2cnccc2OCC2(CC(=O)O)CC2)cc1` [Compound 29, 2-(1-(((3-(4-cyanophenyl)pyridin-4-yl)oxy)methyl)cyclopropyl)acetic acid] was greater than 1000 nM; that for `N#Cc1ccc(-c2cnccc2OCC2(CC(=O)O)CC2)c2ccccc12` [Compound 30] was greater than 1000 nM. The value for `CC(C)(Oc1ccncc1-c1ccc(C#N)cc1)C(=O)O` [Compound 31, 2-(3-(4-cyanophenyl)pyridin-4-yloxy)-2-methylpropanoic acid] was greater than 1000 nM; that for `N#Cc1ccc(-c2cnccc2CCC(=O)O)c2ccccc12` [Compound 32, 3-(3-(4-cyanonaphthalen-1-yl)pyridin-4-yl) propanoic acid] was greater than 1000 nM; that for `CC(C)(Sc1ccncc1-c1ccc(C2(O)CC2)cc1)C(=O)O` [Compound 33, 2-((3-(4-(1-hydroxycyclopropyl)phenyl)pyridin-4-yl)thio)-2-methylpropanoic acid] was 100 to 1000 nM. For `O=C(O)CC1(CSc2ccncc2-c2ccc(C3(O)CC3)cc2)CC1` [Compound 34, 2-(1-(((3-(4-(1-hydroxycyclopropyl)phenyl)pyridin-4-yl)thio)methyl)cyclopropyl)acetic acid] the value was 100 to 1000 nM; for `CC(C)(Sc1ccncc1-c1ccc(C2(O)COC2)cc1)C(=O)O` [Compound 35, 2-((3-(4-(3-hydroxyoxetan-3-yl)phenyl)pyridin-4-yl)thio)-2-methylpropanoic acid], 100 to 1000 nM; for `O=C(O)CC1(CSc2ccncc2-c2ccc(C3(O)COC3)cc2)CC1` [Compound 36, 2-(1-(((3-(4-(3-hydroxyoxetan-3-yl)phenyl)pyridin-4-yl)thio)methyl)cyclopropyl)acetic acid], greater than 1000 nM. Consider `CC(C)(Sc1ccncc1-c1ccc(C#N)cn1)C(=O)O` [Compound 37, 2-((5-cyano-[2,3′-bipyridine]-4′-yl)thio)-2-methylpropanoic acid], for which the IC50 is greater than 1000 nM. For `N#Cc1ccc(-c2cnccc2SCC2(CC(=O)O)CC2)nc1` [Compound 38, 2-(1-(((5-cyano-2,3′-bipyridin-4′-yl)thio)methyl)cyclopropyl)acetic acid] the value was greater than 1000 nM; for `O=C(O)CC1(CSc2ccncc2-c2ccc(C(=O)O)cn2)CC1` [Compound 39, 4′-(((1-(carboxymethyl)cyclopropyl)methyl)thio)-[2,3′-bipyridine]-5-carboxylic acid], greater than 1000 nM.

Consider `[2H]C([2H])([2H])C(Sc1ccncc1-c1ccc(C#N)c2ccccc12)(C(=O)O)C([2H])([2H])[2H]` [Compound 40, di(methyl-d3)-2-((3-(4-cyanonaphthalen-1-yl)pyridin-4-yl)thio)acetic acid], for which the IC50 is less than 100 nM. The value for `[2H]C([2H])([2H])C(C)(Sc1ccncc1-c1ccc(C#N)c2ccccc12)C(=O)O` (stereo not drawn) [Compound 41, 2-methyl-d3-2-((3-(4-cyanonaphthalen-1-yl)pyridin-4-yl)thio) propanoic acid] was less than 100 nM.
